Reference: ChEMBL document CHEMBL4831525, “Design, synthesis and biological evaluation of quinazoline derivatives as potent and selective FGFR4 inhibitors” (Eur J Med Chem, 2021)
Values belong to the molecule of their own block, whether it stands above or below them. Calls of active or inactive are those of the source. No cut-off for these calls is given here.

Key:
[1] = Stability of the compound in rat liver microsomes assessed as parent compound remaining incubated for 60 mins in presence of NADPH by LC-MS analysis; format: ADME, Microsome; conditions: read-out: Stability
[2] = Stability of the compound in rat plasma assessed as parent compound remaining incubated for 60 mins; format: ADME, cell-free; conditions: read-out: Stability
[3] = molecular target: Fibroblast growth factor receptor 1 (Homo sapiens, UniProt P11362); assay: Inhibition of FGFR1 (unknown origin)
[4] = molecular target: Fibroblast growth factor receptor 2 (Homo sapiens, UniProt P21802); assay: Inhibition of FGFR2 (unknown origin)
[5] = molecular target: Fibroblast growth factor receptor 3 (Homo sapiens, UniProt P22607); assay: Inhibition of FGFR3 (unknown origin)
Hep 3B2 = assay: Induction of apoptosis in human Hep3B cells assessed as increase in cleaved PARP level at 3 to 20 uM by Western blot analysis; format: functional, cell-based; conditions: dose 3-20 µM
Huh-7 = assay: cells; conditions: Homo sapiens, Huh-7, 72 h
Description: Antiproliferative activity against human Huh-7 cells assessed as inhibition of cell proliferation measured after 72 hrs by SRB assay

[6] = molecular target: T1, Fibroblast growth factor receptor 4 (Homo sapiens, UniProt P22455)
Target sequence in this assay (P22455 whole entry, the tested form may be a part): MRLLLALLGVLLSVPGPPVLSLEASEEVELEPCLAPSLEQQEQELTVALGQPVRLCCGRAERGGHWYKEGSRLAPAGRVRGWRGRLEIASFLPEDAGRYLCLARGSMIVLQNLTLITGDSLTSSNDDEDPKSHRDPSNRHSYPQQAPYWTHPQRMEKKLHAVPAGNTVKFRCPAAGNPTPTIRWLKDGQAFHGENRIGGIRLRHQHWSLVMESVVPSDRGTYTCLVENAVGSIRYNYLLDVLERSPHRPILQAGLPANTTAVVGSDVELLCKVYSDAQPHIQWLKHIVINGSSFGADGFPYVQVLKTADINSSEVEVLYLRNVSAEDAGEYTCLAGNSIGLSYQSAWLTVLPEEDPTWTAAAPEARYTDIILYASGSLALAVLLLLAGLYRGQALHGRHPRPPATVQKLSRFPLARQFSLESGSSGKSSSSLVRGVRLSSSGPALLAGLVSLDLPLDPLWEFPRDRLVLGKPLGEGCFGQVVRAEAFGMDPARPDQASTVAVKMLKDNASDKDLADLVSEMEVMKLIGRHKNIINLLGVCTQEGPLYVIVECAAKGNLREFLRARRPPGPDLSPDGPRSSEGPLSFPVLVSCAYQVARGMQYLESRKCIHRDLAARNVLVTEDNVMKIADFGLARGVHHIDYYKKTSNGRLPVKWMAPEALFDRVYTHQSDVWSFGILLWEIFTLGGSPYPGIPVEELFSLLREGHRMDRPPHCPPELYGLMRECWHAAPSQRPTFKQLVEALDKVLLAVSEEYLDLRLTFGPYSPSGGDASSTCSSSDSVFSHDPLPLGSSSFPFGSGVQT
Description: Inhibition of FGFR4 (unknown origin)

[7] = molecular target: T1, Fibroblast growth factor receptor 4; assay: Inhibition of N-terminal GST fusion tagged human FGFR4 cytoplasmic domain (460 to 802 end residues) expressed in baculovirus expression system at 1 nM preincubated for 10 mins followed by substrate addition and further incubated for 30 mins in presence of ATP at Km concentration by caliper mobility shift assay relative to control; conditions: time 40.0 min
Target sequence in this assay (P22455 22-802 limits assumed): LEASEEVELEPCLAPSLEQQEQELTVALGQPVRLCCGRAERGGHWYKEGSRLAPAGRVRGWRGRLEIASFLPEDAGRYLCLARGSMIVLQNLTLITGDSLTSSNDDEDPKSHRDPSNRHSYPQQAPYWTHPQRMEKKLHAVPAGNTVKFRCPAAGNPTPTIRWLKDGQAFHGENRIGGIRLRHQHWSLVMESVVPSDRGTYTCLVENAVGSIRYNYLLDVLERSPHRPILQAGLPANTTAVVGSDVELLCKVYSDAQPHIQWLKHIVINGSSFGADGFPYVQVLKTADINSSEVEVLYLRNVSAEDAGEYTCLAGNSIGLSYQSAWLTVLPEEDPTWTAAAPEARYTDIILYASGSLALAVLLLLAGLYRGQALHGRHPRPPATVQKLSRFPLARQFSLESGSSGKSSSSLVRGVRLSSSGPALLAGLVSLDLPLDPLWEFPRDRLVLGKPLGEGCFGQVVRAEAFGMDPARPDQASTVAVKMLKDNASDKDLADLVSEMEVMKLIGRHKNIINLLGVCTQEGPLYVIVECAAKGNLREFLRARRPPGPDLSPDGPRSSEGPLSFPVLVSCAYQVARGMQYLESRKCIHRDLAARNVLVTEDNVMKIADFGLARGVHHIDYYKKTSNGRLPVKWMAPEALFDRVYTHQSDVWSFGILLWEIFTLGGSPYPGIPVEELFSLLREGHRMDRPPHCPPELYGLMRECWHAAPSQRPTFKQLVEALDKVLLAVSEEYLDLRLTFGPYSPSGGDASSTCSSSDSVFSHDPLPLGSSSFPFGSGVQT

Chain of Fibroblast growth factor receptor 2 (P21802 whole entry): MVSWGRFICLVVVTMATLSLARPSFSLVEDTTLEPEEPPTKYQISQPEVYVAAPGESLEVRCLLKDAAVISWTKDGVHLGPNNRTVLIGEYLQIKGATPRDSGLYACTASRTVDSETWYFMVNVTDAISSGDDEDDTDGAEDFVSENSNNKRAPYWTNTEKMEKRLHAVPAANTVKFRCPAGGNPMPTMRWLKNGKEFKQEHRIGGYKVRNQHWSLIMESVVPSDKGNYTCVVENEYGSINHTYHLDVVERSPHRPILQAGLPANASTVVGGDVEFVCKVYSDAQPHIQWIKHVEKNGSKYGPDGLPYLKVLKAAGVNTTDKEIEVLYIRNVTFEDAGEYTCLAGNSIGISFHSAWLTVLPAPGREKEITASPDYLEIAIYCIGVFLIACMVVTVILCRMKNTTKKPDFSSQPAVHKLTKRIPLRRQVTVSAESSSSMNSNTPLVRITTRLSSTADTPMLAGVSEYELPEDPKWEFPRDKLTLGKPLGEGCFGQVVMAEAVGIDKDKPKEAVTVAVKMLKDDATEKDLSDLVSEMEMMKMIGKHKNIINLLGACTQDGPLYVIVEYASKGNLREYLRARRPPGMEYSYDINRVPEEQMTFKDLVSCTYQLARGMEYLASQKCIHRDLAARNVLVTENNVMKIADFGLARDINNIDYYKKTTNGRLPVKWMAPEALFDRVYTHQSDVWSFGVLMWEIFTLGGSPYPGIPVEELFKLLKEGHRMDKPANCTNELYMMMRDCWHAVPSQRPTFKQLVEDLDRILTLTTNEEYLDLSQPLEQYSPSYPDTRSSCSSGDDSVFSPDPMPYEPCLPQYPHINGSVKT
Chain of Fibroblast growth factor receptor 1 (P11362 whole entry): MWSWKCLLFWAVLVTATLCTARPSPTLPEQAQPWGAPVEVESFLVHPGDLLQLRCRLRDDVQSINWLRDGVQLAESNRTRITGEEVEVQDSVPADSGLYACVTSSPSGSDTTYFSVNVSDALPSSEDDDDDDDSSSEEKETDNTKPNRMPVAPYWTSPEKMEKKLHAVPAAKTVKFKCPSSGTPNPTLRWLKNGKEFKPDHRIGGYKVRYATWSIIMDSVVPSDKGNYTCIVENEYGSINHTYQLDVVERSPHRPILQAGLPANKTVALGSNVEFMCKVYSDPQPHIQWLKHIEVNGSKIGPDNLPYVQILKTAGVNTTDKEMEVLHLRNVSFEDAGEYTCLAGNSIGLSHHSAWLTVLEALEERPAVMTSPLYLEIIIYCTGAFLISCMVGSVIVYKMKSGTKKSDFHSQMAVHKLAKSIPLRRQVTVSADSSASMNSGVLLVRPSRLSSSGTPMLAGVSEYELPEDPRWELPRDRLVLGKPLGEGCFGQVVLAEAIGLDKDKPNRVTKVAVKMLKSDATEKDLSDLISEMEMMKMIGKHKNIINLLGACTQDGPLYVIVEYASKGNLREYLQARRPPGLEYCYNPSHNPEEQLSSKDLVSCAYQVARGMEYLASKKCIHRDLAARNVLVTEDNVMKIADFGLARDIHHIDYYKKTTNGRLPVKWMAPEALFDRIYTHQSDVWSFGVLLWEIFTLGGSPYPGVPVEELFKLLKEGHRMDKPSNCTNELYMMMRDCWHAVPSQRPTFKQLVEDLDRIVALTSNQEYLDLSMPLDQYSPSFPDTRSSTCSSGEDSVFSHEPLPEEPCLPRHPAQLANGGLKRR
Chain of Fibroblast growth factor receptor 3 (P22607 whole entry): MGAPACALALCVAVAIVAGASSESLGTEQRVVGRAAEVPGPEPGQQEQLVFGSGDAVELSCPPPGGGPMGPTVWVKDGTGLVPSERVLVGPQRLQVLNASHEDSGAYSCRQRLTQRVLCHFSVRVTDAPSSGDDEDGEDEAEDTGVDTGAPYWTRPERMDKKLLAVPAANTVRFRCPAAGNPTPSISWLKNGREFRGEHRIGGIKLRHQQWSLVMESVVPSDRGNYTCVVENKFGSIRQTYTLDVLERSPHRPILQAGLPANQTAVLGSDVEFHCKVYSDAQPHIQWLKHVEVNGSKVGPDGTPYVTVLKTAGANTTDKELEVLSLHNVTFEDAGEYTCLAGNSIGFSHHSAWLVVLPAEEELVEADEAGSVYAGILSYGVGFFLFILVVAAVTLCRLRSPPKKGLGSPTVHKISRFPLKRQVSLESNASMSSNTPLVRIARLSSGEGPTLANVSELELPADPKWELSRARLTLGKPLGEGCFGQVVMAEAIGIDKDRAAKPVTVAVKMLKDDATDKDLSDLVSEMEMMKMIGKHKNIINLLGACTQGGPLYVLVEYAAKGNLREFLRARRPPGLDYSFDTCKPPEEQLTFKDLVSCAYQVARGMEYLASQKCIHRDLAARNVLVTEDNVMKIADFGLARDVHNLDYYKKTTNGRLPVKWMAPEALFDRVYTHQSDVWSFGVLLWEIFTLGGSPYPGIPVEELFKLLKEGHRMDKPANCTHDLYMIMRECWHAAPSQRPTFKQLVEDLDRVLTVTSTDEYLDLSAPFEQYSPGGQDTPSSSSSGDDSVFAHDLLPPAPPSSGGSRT

remaining at 1 h [1]: 50%
remaining at 1 h [2]: 80%
IC50 [3]: 787 nM
IC50 [4]: 341 nM
IC50 [5]: 3920 nM
IC50 (Huh-7): 1670 nM
Structure (SMILES): C=CC(=O)Nc1cc(S(N)(=O)=O)cc(C)c1Nc1ncc2cc(-c3c(Cl)c(OC)cc(OC)c3Cl)ccc2n1
Activity (Hep 3B2): Active

IC50 [4]: 1200 nM
IC50 [5]: 2200 nM
IC50 [6]: 5 nM
Structure (SMILES): C=CC(=O)N[C@H]1CCOC[C@H]1Nc1ncc2cc(-c3c(Cl)c(OC)cc(OC)c3Cl)ccc2n1 [FISOGATINIB]

IC50 (Huh-7): 8480 nM
Structure (SMILES): C=CC(=O)Nc1cc(CCN2CCN(C3COC3)CC2)cc(C)c1Nc1ncc2cc(-c3c(Cl)c(OC)cc(OC)c3Cl)ccc2n1

IC50 (Huh-7): 4480 nM
Structure (SMILES): C=CC(=O)Nc1cc(CCN2CCC(NC(=O)OC(C)(C)C)CC2)cc(C)c1Nc1ncc2cc(-c3c(Cl)c(OC)cc(OC)c3Cl)ccc2n1

IC50 (Huh-7): 4450 nM
Structure (SMILES): C=CC(=O)Nc1cc(CCN2CCc3ccccc3C2)cc(C)c1Nc1ncc2cc(-c3c(Cl)c(OC)cc(OC)c3Cl)ccc2n1

IC50 (Huh-7): 4330 nM
Structure (SMILES): C=CC(=O)Nc1cc(CCN(CC)CCC)cc(C)c1Nc1ncc2cc(-c3c(Cl)c(OC)cc(OC)c3Cl)ccc2n1

IC50 (Huh-7): 4750 nM
Structure (SMILES): C=CC(=O)Nc1cc(S(=O)(=O)NC(=O)C=C)ccc1Nc1ncc2cc(-c3c(Cl)c(OC)cc(OC)c3Cl)ccc2n1

IC50 [3]: 28 nM
IC50 [4]: 15 nM
IC50 [5]: 102 nM
IC50 (Huh-7): 2160 nM
Structure (SMILES): C=CC(=O)Nc1cc(S(C)(=O)=O)ccc1Nc1ncc2cc(-c3c(Cl)c(OC)cc(OC)c3Cl)ccc2n1

IC50 [3]: 886 nM
IC50 [4]: 379 nM
IC50 [5]: 3870 nM
IC50 (Huh-7): 1940 nM
Structure (SMILES): C=CC(=O)Nc1cc(S(C)(=O)=O)cc(C)c1Nc1ncc2cc(-c3c(Cl)c(OC)cc(OC)c3Cl)ccc2n1

IC50 (Huh-7): 7140 nM
Structure (SMILES): C=CC(=O)Nc1cc(CCN2CCN(C)CC2)cc(C)c1Nc1ncc2cc(-c3c(Cl)c(OC)cc(OC)c3Cl)ccc2n1

IC50 (Huh-7): 4520 nM
Structure (SMILES): C=CC(=O)Nc1cc(CCN2CCCC2)cc(C)c1Nc1ncc2cc(-c3c(Cl)c(OC)cc(OC)c3Cl)ccc2n1

IC50 (Huh-7): 2410 nM
Structure (SMILES): C=CC(=O)Nc1cc(CCO)cc(C)c1Nc1ncc2cc(-c3c(Cl)c(OC)cc(OC)c3Cl)ccc2n1

IC50 (Huh-7): 4260 nM
Structure (SMILES): C=CC(=O)Nc1cc(CCCN2CCCC2)cc(C)c1Nc1ncc2cc(-c3c(Cl)c(OC)cc(OC)c3Cl)ccc2n1

inhibition [7]: 55%
IC50 (Huh-7): 2240 nM
Structure (SMILES): C=CC(=O)Nc1cc(CCCN(C)C)cc(C)c1Nc1ncc2cc(-c3c(Cl)c(OC)cc(OC)c3Cl)ccc2n1

IC50 (Huh-7): 4180 nM
Structure (SMILES): C=CC(=O)Nc1cc(CCN2CCN(CCOC)CC2)cc(C)c1Nc1ncc2cc(-c3c(Cl)c(OC)cc(OC)c3Cl)ccc2n1

IC50 (Huh-7): 13300 nM
Structure (SMILES): C=CC(=O)Nc1cc(CCN2CCOCC2)cc(C)c1Nc1ncc2cc(-c3c(Cl)c(OC)cc(OC)c3Cl)ccc2n1

IC50 (Huh-7): 3560 nM
Structure (SMILES): C=CC(=O)Nc1cc(CCN2CCCC2CN2CCCC2)cc(C)c1Nc1ncc2cc(-c3c(Cl)c(OC)cc(OC)c3Cl)ccc2n1 (centres undefined)

remaining at 1 h [1]: 15%
IC50 (Huh-7): 929 nM
Structure (SMILES): C=CC(=O)Nc1cccc(C)c1Nc1ncc2cc(-c3c(Cl)c(OC)cc(OC)c3Cl)ccc2n1
Activity (Hep 3B2): Active

IC50 [3]: 39 nM
IC50 [4]: 24 nM
IC50 [5]: 79 nM
IC50 (Huh-7): 936 nM
Structure (SMILES): C=CC(=O)Nc1cc(SC)ccc1Nc1ncc2cc(-c3c(Cl)c(OC)cc(OC)c3Cl)ccc2n1
